# In patent publication US20150025077A1 (COYOTE PHARMACEUTICALS, INC., priority 2012, published 2015):
# “And” between values parts separate entries of the source, which are not always exact repeats. Equal entries are not always repeated.
# What was measured:
# [1] = test system: Sprague-Dawley rats; experiment: Kainic acid induced neurodegeneration and seizure behaviors in rats (Examples 20, 21); format: in vivo, rat; settings: oral
# Source text: Seizure behaviors were observed and scored (Ref. R. J. Racine, Modification of seizure activity by electrical stimulation: II. Motor seizure, Electroencephalogr. Clin. […] Modifications were made for the methods). Brain tissues of rats were sectioned on histology slides, and neurons in hippocampus tissues were stained by Nissl. Neurons in dentate gyrus tissues damaged by Kainic acid were quantified. The Memantine composition used in comparison refers to a commercially available NMDA receptor […]. […] Seizure behaviors were observed and scored (Ref. R. J. Racine, Modification of seizure activity by electrical stimulation: II. Motor seizure, Electroencephalogr. Clin. […] Modifications were made for the methods). Brain tissues of rats were sectioned on histology slides, and neurons in hippocampus tissues were stained by Nissl. Neurons damaged by Kainic acid and behavior scores were quantified.
# [2] = Pharmacokinetics of CNS-102 in rats (IV, oral); format: in vivo; settings: rat
# Method: Rats were administered a single dose of CNS-102 either intravenously (12 mg/kg) or orally (24 mg/kg), and blood samples were taken to measure the average plasma concentrations of CNS-102 over time.
# The formulation for this study includes the following: […]
# Formulations: (Dose: 24 mg/kg; Study Date: 4-16-2012)
# [3] = 12 mg/kg IV, individual rats 1-3, 12 mg/kg
# [4] = 12 mg/kg IV, individual rats 2, 3, 12 mg/kg
# [5] = 24 mg/kg oral vs 12 mg/kg IV, average
compound,measurement,setting,value
CC(=O)CC/C=C(\C)CC/C=C(\C)CC/C=C(\C)CCC=C(C)C [CNS-102],Mean of Hippocampus CA3 Neurons Damaged,[1]; 3 mg/Kg rat,10.25 Arbitrary units
same,Mean of Seizure behaviors scores,[1]; 3 mg/Kg rat,27.5
same,Mean of Hippocampus CA3 Neurons Damaged,[1]; 12 mg/Kg rat,10.16 Arbitrary units
same,Mean of Seizure behaviors scores,[1]; 12 mg/Kg rat,22.5
same,Mean of Hippocampus CA3 Neurons Damaged,[1]; 25 mg/Kg rat,1.97 Arbitrary units
same,Mean of Seizure behaviors scores,[1]; 25 mg/Kg rat,25.75
same,Seizure behaviors scores,"[1]; Kainic acid, vehicle 34",18.8
same,Plasma Concentration of CNS-102,"[2]; 12 mg/kg IV, 5 min, average",2402.5 ng/mL
same,Plasma Concentration of CNS-102,"[2]; 12 mg/kg IV, 5 min, individual rats 1-3, 12 mg/kg",1268.2 ng/mL and 4087.5 ng/mL
same,Plasma Concentration of CNS-102,"[2]; 12 mg/kg IV, 10 min, average",869.6 ng/mL
same,Plasma Concentration of CNS-102,"[2]; 12 mg/kg IV, 10 min, individual rats 1-3, 12 mg/kg",227.0 ng/mL and 929.0 ng/mL
same,Plasma Concentration of CNS-102,"[2]; 12 mg/kg IV, 20 min, average",518.9 ng/mL
same,Plasma Concentration of CNS-102,"[2]; 12 mg/kg IV, 20 min, individual rats 1-3, BQL set to zero, 12 mg/kg",0.00 ng/mL and 652.7 ng/mL
same,Plasma Concentration of CNS-102,"[2]; 12 mg/kg IV, 30 min, average",334.7 ng/mL
same,Plasma Concentration of CNS-102,"[2]; 12 mg/kg IV, 30 min, individual rats 1-3, BQL set to zero",0.00 ng/mL
same,Plasma Concentration of CNS-102,"[2]; 12 mg/kg IV, 60 min, average",325.8 ng/mL
same,Plasma Concentration of CNS-102,"[2]; 12 mg/kg IV, 60 min, individual rats 1-3, BQL set to zero",0.00 ng/mL
same,Plasma Concentration of CNS-102,"[2]; 12 mg/kg IV, 120 min, average",150.2 ng/mL
same,Plasma Concentration of CNS-102,"[2]; 12 mg/kg IV, 120 min, individual rats 1-3, BQL set to zero",0.00 ng/mL
same,Plasma Concentration of CNS-102,"[2]; 12 mg/kg IV, 240 min, average",209.0 ng/mL
same,Plasma Concentration of CNS-102,"[2]; 12 mg/kg IV, 240 min, individual rats 1-3, BQL set to zero",0.00 ng/mL
same,Plasma Concentration of CNS-102,"[2]; 12 mg/kg IV, 480 min, average",77.4 ng/mL
same,Plasma Concentration of CNS-102,"[2]; 12 mg/kg IV, 480 min, individual rats 1-3, BQL set to zero",0.00 ng/mL
same,Plasma Concentration of CNS-102,"[2]; 12 mg/kg IV, 720 min, average",0.0 ng/mL
same,Plasma Concentration of CNS-102,"[2]; 12 mg/kg IV, 720 min, individual rats 1-3, BQL set to zero",0.00 ng/mL
same,AUC(0-inf),"[2]; 12 mg/kg IV, average",208728 ng·min/mL
same,AUC(0-last),"[2]; 12 mg/kg IV, average",115146 ng·min/mL
same,C0,"[2]; 12 mg/kg IV, average",9144.0 ng/mL
same,Vss,"[2]; 12 mg/kg IV, average",9.796 L/kg
same,Vz,"[2]; 12 mg/kg IV, average",12.039 L/kg
same,t1/2,"[2]; 12 mg/kg IV, average",2.45 h
same,AUC(0-last),[2]; [3],19934.3 ng·min/mL and 95802.8 ng·min/mL and 229701.4 ng·min/mL
same,C0,[2]; [3],7086.8 ng/mL and 17984.5 ng/mL and 2360.7 ng/mL
same,AUC(0-inf),[2]; [4],115420.9 ng·min/mL and 302035.6 ng·min/mL
same,Vss,[2]; [4],6.0519 L/kg and 13.5396 L/kg
same,Vz,[2]; [4],11.6998 L/kg and 12.3785 L/kg
same,t1/2,[2]; [4],1.3 h and 3.6 h
same,F (0-inf),[2]; [5],49.1%
same,F (0-last),[2]; [5],82.1%
same,Plasma Concentration of CNS-102,"[2]; 24 mg/kg oral, 10 min, average",0.0 ng/mL
same,Plasma Concentration of CNS-102,"[2]; 24 mg/kg oral, 10 min, individual rats 4-6, BQL set to zero",0 ng/mL
same,Plasma Concentration of CNS-102,"[2]; 24 mg/kg oral, 30 min, average",193.3 ng/mL
same,Plasma Concentration of CNS-102,"[2]; 24 mg/kg oral, 30 min, individual rats 4-6, 24 mg/kg",193.8 ng/mL and 224.3 ng/mL and 161.8 ng/mL
same,Plasma Concentration of CNS-102,"[2]; 24 mg/kg oral, 60 min, average",576.8 ng/mL
same,Plasma Concentration of CNS-102,"[2]; 24 mg/kg oral, 60 min, individual rats 4-6, 24 mg/kg",331.9 ng/mL and 500.2 ng/mL
same,Plasma Concentration of CNS-102,"[2]; 24 mg/kg oral, 120 min, average",176.8 ng/mL
same,Plasma Concentration of CNS-102,"[2]; 24 mg/kg oral, 120 min, individual rats 4-6",147.6 ng/mL
same,Plasma Concentration of CNS-102,"[2]; 24 mg/kg oral, 240 min, average",298.0 ng/mL
same,Plasma Concentration of CNS-102,"[2]; 24 mg/kg oral, 240 min, individual rats 4-6, BQL set to zero",0 ng/mL
